Results taken from patent US12649717B2, “Cyanine-derived compound, preparation method therefor, and application thereof” (priority 2020, dated 2026).

Columns and labels:
[1] = test system: HeLa cells; experiment: Phototoxicity assay: HeLa cell viability (PI staining) after LED irradiation; details: for Cell viability under 1-minute irradiation / Cell viability under 5-minute irradiation / Cell viability under 15-minute irradiation: PI viability counting after 2 hours at 37° C.
Protocol: HeLa cells were irradiated with corresponding LED light (same light intensity for the same channel) for different periods of time under a widefield fluorescence microscope. The irradiated cells were incubated for 2 hours in a cell incubator at 37° C. Then, the cells were stained with propidium iodide (PI) for viability counting.

[2] = test system: Rat cardiomyocytes; experiment: 3D-laser confocal time-series imaging of labeled rat cardiomyocytes; format: cell-based; details: 250 nM, 10-15 minutes staining
Protocol: Then, different microscopic imaging experiments were carried out.

Compound	Cell viability under 1-minute irradiation [1]	Cell viability under 5-minute irradiation [1]	Cell viability under 15-minute irradiation [1]	Time sequences after which labeled cells violently contracted to death [2]	Phototoxicity relative to commercial dyes (times less phototoxic) ([1]; HeLa cells, versus MTR CMXRos, MTDR (b53 also versus non-optimized compounds of 1-6))	Phototoxicity comparison (in words) ([1]; cell viability after continuous irradiation under high light intensity)
C[N+]1=C(/C=C/C=C/C=C2\N(Cc3ccc(CCl)cc3)c3ccccc3C2(C)C)C(C)(C)c2ccccc21.[Cl-] [MitoTracker Deep Red FM]	100%	0%	0%	8 time sequences		
ClCc1ccc(C2=c3cc4c5c(c3Oc3c2cc2c6c3CCCN6CCC2)CCC[N+]=5CCC4)cc1.[Cl-] [MitoTracker Red CMXRos]	86.9%	0%	0%			
CC1(C)C(/C=C/C=C2/N(CCOC(=O)c3ccccc3)c3ccc4ccccc4c3C2(C)C)=[N+](CCOC(=O)c2ccccc2)c2ccc3ccccc3c21.[Br-] [Probe 1-6-1]	100%	95%	25%			
CC1=[N+](CCN)c2ccc3ccccc3c2C1(C)C.[Br-] [Probe 1-6]	100%	99%	95%		about 5 times	lower phototoxicity
